The target in the assay is T1, human PD-1 / PD-L1-Ig binding on Jurkat cell line over-expressing human PD-1 (Jurkat-PD-1) (Homo sapiens, UniProt Q15116).
T1 construct: expressed in transfected cells; host or cells: Jurkat
In words: Jurkat-PD-1 Cell Binding High-Content Screening Assay (CBA). The assay is classed as cell-based. The conditions noted are these: PE-labeled PD-L1-Ig 20 nM final. An outline of the steps:
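Cell-bound PE-labeled PD-L1-Ig (20 nM final, 1 h) measured by high-content imaging after fixation and Hoechst 33342 counterstain. Compound was applied first for 2 h at 37° C. to Jurkat cells over-expressing human PD-1 in DMEM with 10% FCS.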

Where [1] appears, read: Jurkat-PD-1 cells, read-out: Jurkat HPD1_PDL1 IC50.

This passage reports IC50 results from patent US20250163104A1, “MACROCYCLIC IMMUNOMODULATORS” (priority 2021, published 2025).

For orientation: IC50 means the midpoint of a concentration-inhibition curve.

Where two headings read alike, the source gives them in different places. *1 amine or outer side, *2 acyl side, *3 side chain or, on linkers, in order; H or OH if unused. Where a SMILES comes first, the peptide text is derived from it. Bridges are numbered along the chain shown (N, C = ends). [ ]: non-standard residue; d: D form. The star is where a group is joined. ξ: configuration not given here. Ala(1H-tetrazol-5-yl) = N[C@@H](Cc1nnn[nH]1)C(=O)O; Phe(4-CONH2) = NC(=O)c1ccc(C[C@H](N)C(=O)O)cc1; Phe(4-COOH) = N[C@@H](Cc1ccc(C(=O)O)cc1)C(=O)O; Bip = N[C@@H](Cc1ccc(-c2ccccc2)cc1)C(=O)O; Ala(2-furyl) = N[C@@H](Cc1ccco1)C(=O)O; Phe(3-Me) = Cc1cccc(C[C@H](N)C(=O)O)c1; Ethylenediamine = C(CN[*:2])N[*:1]; Val(3-OH) = CC(C)(O)[C@H](N)C(=O)O; 3Pal = N[C@@H](Cc1cccnc1)C(=O)O; 4Pal = N[C@@H](Cc1ccncc1)C(=O)O; Cha = N[C@@H](CC1CCCCC1)C(=O)O; Cit = NC(=O)NCCC[C@H](N)C(=O)O; Gly(cPr) = N[C@H](C(=O)O)C1CC1; Ile(3ξ) = CCC(C)[C@H](N)C(=O)O; dCha = N[C@H](CC1CCCCC1)C(=O)O; Thr(3ξ) = CC(O)[C@H](N)C(=O)O; Carboxymethyl = O=C(O)C*; Nle = CCCC[C@H](N)C(=O)O; Orn = NCCC[C@H](N)C(=O)O; Dab = NCC[C@H](N)C(=O)O; Dap = NC[C@H](N)C(=O)O

T1 sequence (Q15116 25-288): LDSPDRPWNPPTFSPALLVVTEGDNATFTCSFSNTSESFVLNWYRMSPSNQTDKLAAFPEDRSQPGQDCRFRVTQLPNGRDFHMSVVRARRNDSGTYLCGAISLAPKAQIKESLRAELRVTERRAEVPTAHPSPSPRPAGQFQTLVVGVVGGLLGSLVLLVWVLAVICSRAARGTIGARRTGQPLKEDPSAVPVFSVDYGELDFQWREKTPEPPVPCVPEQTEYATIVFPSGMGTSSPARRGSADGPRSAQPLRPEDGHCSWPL

As for `CC(C)C[C@H]1NC(=O)[C@H](CCCN)NC(=O)[C@H](CCC(=O)O)NC(=O)[C@H](Cc2ccc(-c3ccccc3)cc2)NC(=O)[C@H](C(C)C)NC(=O)[C@H](Cc2c[nH]c3ccccc23)NC(=O)[C@H](CC(=O)O)NC(=O)[C@H](Cc2ccc(O)cc2)NC(=O)[C@H](CC(N)=O)NC(=O)CSC[C@@H](C(=O)N[C@@H](C)C(N)=O)NC(=O)[C@H]([C@@H](C)O)NC(=O)[C@H](C(C)C)NC(=O)[C@H](CC2CCCCC2)NC(=O)[C@H](CCN)NC1=O` [Compound 1424] ({CH2CO}-NYDWV[Bip]E[Orn][dL][Dab][Cha]VTCA-NH2; thioether N-14), the half-maximal inhibitory concentration (IC50) under setting [1] came to 14.7 nM.

On to `Cc1cccc(C[C@@H]2NC(=O)[C@H](CC(=O)O)NC(=O)[C@H](Cc3ccc(OCC(=O)O)cc3)NC(=O)[C@H](C(C)O)NC(=O)CSC[C@@H](C(=O)N[C@@H](CN)C(=O)NCCN)NC(=O)[C@H](C(C)O)NC(=O)[C@H](C(C)(C)O)NC(=O)[C@H](CC3CCCCC3)NC(=O)[C@H](CCN)NC(=O)[C@@H](CC(C)C)NC(=O)[C@H](CCCN)NC(=O)[C@H](Cc3ccc(O)cc3)NC(=O)[C@H](Cc3ccc(-c4ccccc4)cc3)NC(=O)[C@H](Cc3ccc(C(N)=O)cc3)NC2=O)c1` (stereo partly drawn) [Compound 2664] ({CH2CO}-[Thr(3ξ)]Y(Carboxymethyl)D[Phe(3-Me)][Phe(4-CONH2)][Bip]Y[Orn][dL][Dab][Cha][Val(3-OH)][Thr(3ξ)]C[Dap]-Ethylenediamine; thioether N-14), for which the IC50 under setting [1] worked out at 15.2 nM.

As to `CCC(C)[C@@H]1NC(=O)[C@H](Cc2ccc(-c3ccccc3)cc2)NC(=O)[C@H](C(C)C)NC(=O)[C@H](Cc2c[nH]c3ccccc23)NC(=O)[C@H](CC(=O)O)NC(=O)[C@H](Cc2cccnc2)NC(=O)[C@H](CC(N)=O)NC(=O)CSC[C@@H](C(=O)N[C@@H](C)C(N)=O)NC(=O)[C@H]([C@@H](C)O)NC(=O)[C@H](C(C)C)NC(=O)[C@H](CC2CCCCC2)NC(=O)[C@H](CCN)NC(=O)[C@@H](CC(C)C)NC(=O)[C@H](CCCN)NC1=O` (stereo partly drawn) [Compound 2228] ({CH2CO}-N[3Pal]DWV[Bip][Ile(3ξ)][Orn][dL][Dab][Cha]VTCA-NH2; thioether N-14), the IC50 under setting [1] was 16.1 nM.

Regarding `CC(C)C[C@H]1NC(=O)[C@H](CCCN)NC(=O)[C@H](CCCNC(N)=O)NC(=O)[C@H](Cc2ccc(-c3ccccc3)cc2)NC(=O)[C@H](C2CC2)NC(=O)[C@H](Cc2c[nH]c3ccccc23)NC(=O)[C@H](CC(=O)O)NC(=O)[C@H](Cc2ccc(OCC(=O)O)cc2)NC(=O)[C@H](CN)NC(=O)CSC[C@@H](C(=O)N[C@@H](C)C(N)=O)NC(=O)[C@H]([C@@H](C)O)NC(=O)[C@H](C(C)C)NC(=O)[C@H](CC2CCCCC2)NC(=O)[C@H](CCN)NC1=O` [Compound 1369] ({CH2CO}-[Dap]Y(Carboxymethyl)DW[Gly(cPr)][Bip][Cit][Orn][dL][Dab][Cha]VTCA-NH2; thioether N-14), under setting [1], the IC50 is 19.9 nM.

For `CC(C)[C@@H]1NC(=O)[C@H](Cc2c[nH]c3ccccc23)NC(=O)[C@H](CC(=O)O)NC(=O)[C@H](Cc2ccc(O)cc2)NC(=O)[C@H](CC(N)=O)NC(=O)CSC[C@@H](C(=O)N[C@@H](C)C(N)=O)NC(=O)[C@H]([C@@H](C)O)NC(=O)[C@H](C(C)C)NC(=O)[C@H](CC2CCCCC2)NC(=O)[C@H](CCN)NC(=O)[C@@H](Cc2ccccc2)NC(=O)[C@H](CCCN)NC(=O)[C@H](CCC(=O)O)NC(=O)[C@H](Cc2ccc(-c3ccccc3)cc2)NC1=O` [Compound 1435] ({CH2CO}-NYDWV[Bip]E[Orn][dF][Dab][Cha]VTCA-NH2; thioether N-14), the IC50 under setting [1] was 53.1 nM.

In the case of `Cc1cccc(C[C@@H]2NC(=O)[C@H](Cc3nn[nH]n3)NC(=O)[C@H](Cc3ccc(OCC(=O)O)cc3)NC(=O)[C@H](CN)NC(=O)CSC[C@@H](C(=O)N[C@@H](C)C(N)=O)NC(=O)[C@H]([C@@H](C)O)NC(=O)[C@H](C(C)C)NC(=O)[C@H](CC3CCCCC3)NC(=O)[C@H](CCN)NC(=O)[C@@H](CC(C)C)NC(=O)[C@H](CCCN)NC(=O)[C@H](CCCNC(N)=O)NC(=O)[C@H](Cc3ccc(-c4ccccc4)cc3)NC(=O)[C@H](C(C)C)NC2=O)c1` [Compound 1327] ({CH2CO}-[Dap]Y(Carboxymethyl)[Ala(1H-tetrazol-5-yl)][Phe(3-Me)]V[Bip][Cit][Orn][dL][Dab][Cha]VTCA-NH2; thioether N-14), under setting [1], the half-inhibitory concentration (IC50) is 31.6 nM.

Turning to `CCCC[C@@H]1NC(=O)[C@H](CCN)NC(=O)[C@@H](CC(C)C)NC(=O)[C@H](CCCN)NC(=O)[C@H](C(C)C)NC(=O)[C@H](Cc2ccc(-c3ccccc3)cc2)NC(=O)[C@H](C(C)C)NC(=O)[C@H](Cc2c[nH]c3ccccc23)NC(=O)[C@H](CC(=O)O)NC(=O)[C@H](Cc2ccc(O)cc2)NC(=O)[C@H](CN)NC(=O)CSC[C@@H](C(=O)N[C@@H](C)C(N)=O)NC(=O)[C@H]([C@@H](C)O)NC(=O)[C@H](C(C)C)NC1=O` [Compound 1169] ({CH2CO}-[Dap]YDWV[Bip]V[Orn][dL][Dab][Nle]VTCA-NH2; thioether N-14), the IC50 under setting [1] is 20.7 nM.

Regarding `CC(C)[C@@H]1NC(=O)[C@H](Cc2c[nH]c3ccccc23)NC(=O)[C@H](CC(=O)O)NC(=O)[C@H](Cc2ccc(C(=O)O)cc2)NC(=O)[C@H](Cc2ccc(OCC(=O)O)cc2)NC(=O)CSC[C@@H](C(=O)N[C@@H](C)C(N)=O)NC(=O)[C@H]([C@@H](C)O)NC(=O)[C@H](C(C)C)NC(=O)[C@H](CC2CCCCC2)NC(=O)[C@H](CCN)NC(=O)[C@@H](CC2CCCCC2)NC(=O)[C@H](CCCN)NC(=O)[C@H](CCC(=O)O)NC(=O)[C@H](Cc2ccc(-c3ccccc3)cc2)NC1=O` [Compound 1444] ({CH2CO}-Y(Carboxymethyl)[Phe(4-COOH)]DWV[Bip]E[Orn][dCha][Dab][Cha]VTCA-NH2; thioether N-14), under setting [1], the concentration for half-maximal inhibition (IC50) is 5.7 nM.

Regarding `CCCC[C@@H]1NC(=O)[C@H](CCN)NC(=O)[C@@H](CC(C)C)NC(=O)[C@H](CCCN)NC(=O)[C@H](CCCNC(N)=O)NC(=O)[C@H](Cc2ccc(-c3ccccc3)cc2)NC(=O)[C@H](C(C)C)NC(=O)[C@H](Cc2cccc(C)c2)NC(=O)[C@H](CC(=O)O)NC(=O)[C@H](Cc2ccc(OCC(=O)O)cc2)NC(=O)[C@H](Cc2ccncc2)NC(=O)CSC[C@@H](C(=O)N[C@@H](C)C(N)=O)NC(=O)[C@H]([C@@H](C)O)NC(=O)[C@H](C(C)C)NC1=O` [Compound 1195] ({CH2CO}-[4Pal]Y(Carboxymethyl)D[Phe(3-Me)]V[Bip][Cit][Orn][dL][Dab][Nle]VTCA-NH2; thioether N-14), the IC50 under setting [1] amounted to 13.8 nM.

For the compound `CC(C)C[C@H]1NC(=O)[C@H](CCCN)NC(=O)[C@H](CCC(=O)O)NC(=O)[C@H](Cc2ccc(-c3ccccc3)cc2)NC(=O)[C@H](C(C)C)NC(=O)[C@H](Cc2c[nH]c3ccccc23)NC(=O)[C@H](CC(=O)O)NC(=O)[C@H](Cc2ccc(OCC(=O)O)cc2)NC(=O)[C@H](CN)NC(=O)CSC[C@@H](C(=O)N[C@@H](C)C(N)=O)NC(=O)[C@H]([C@@H](C)O)NC(=O)[C@H](C(C)C)NC(=O)[C@H](CC2CCCCC2)NC(=O)[C@H](CCC(=O)O)NC1=O` [Compound 1515] ({CH2CO}-[Dap]Y(Carboxymethyl)DWV[Bip]E[Orn][dL]E[Cha]VTCA-NH2; thioether N-14), under setting [1], the IC50 worked out at 28.8 nM.

In the case of `CC(C)C[C@H]1NC(=O)[C@H](CCCN)NC(=O)[C@H](CCC(=O)O)NC(=O)[C@H](Cc2ccc(-c3ccccc3)cc2)NC(=O)[C@H](C(C)C)NC(=O)[C@H](Cc2c[nH]c3ccccc23)NC(=O)[C@H](CC(=O)O)NC(=O)[C@H](Cc2ccc(OCC(=O)O)cc2)NC(=O)[C@H](CN)NC(=O)CSC[C@@H](C(=O)N[C@@H](C)C(N)=O)NC(=O)[C@H]([C@@H](C)O)NC(=O)[C@H](C(C)C)NC(=O)[C@H](CC2CCCCC2)NC(=O)[C@H](CO)NC1=O` [Compound 1516] ({CH2CO}-[Dap]Y(Carboxymethyl)DWV[Bip]E[Orn][dL]S[Cha]VTCA-NH2; thioether N-14), the half-inhibitory concentration (IC50) under setting [1] was determined as 30 nM.

Take `CCC(C)[C@@H]1NC(=O)[C@H](Cc2ccc(-c3ccccc3)cc2)NC(=O)[C@H](C(C)C)NC(=O)[C@H](Cc2c[nH]c3ccccc23)NC(=O)[C@H](CC(=O)O)NC(=O)[C@H](Cc2ccc(OCC(=O)O)cc2)NC(=O)[C@H](Cc2cc[nH]c2)NC(=O)CSC[C@@H](C(=O)N[C@H](C)C(N)=O)NC(=O)[C@H](C(C)O)NC(=O)[C@H](C(C)(C)O)NC(=O)[C@H](CC2CCCCC2)NC(=O)[C@H](CCN)NC(=O)[C@@H](CC(C)C)NC(=O)[C@H](CCCN)NC1=O` (some centres unmarked) [Compound 2662]: the IC50 under setting [1] came out at 8.3 nM.

In the case of `Cc1cccc(C[C@@H]2NC(=O)[C@H](CC(=O)O)NC(=O)[C@H](Cc3ccc(OCC(=O)O)cc3)NC(=O)[C@H](Cc3ccco3)NC(=O)CSC[C@@H](C(=O)N[C@@H](CCN)C(N)=O)NC(=O)[C@H](Cc3cnc[nH]3)NC(=O)[C@H](C(C)(C)O)NC(=O)[C@H](CC3CCCCC3)NC(=O)[C@H](CCN)NC(=O)[C@@H](CC(C)C)NC(=O)[C@H](CCCN)NC(=O)[C@H](Cc3ccc(OCC(=O)O)cc3)NC(=O)[C@H](Cc3ccc(-c4ccccc4)cc3)NC(=O)[C@H](Cc3ccc(OCC(=O)O)cc3)NC2=O)c1` [Compound 2646] ({CH2CO}-[Ala(2-furyl)]Y(Carboxymethyl)D[Phe(3-Me)]Y(Carboxymethyl)[Bip]Y(Carboxymethyl)[Orn][dL][Dab][Cha][Val(3-OH)]HC[Dab]-NH2; thioether N-14), the half-maximal inhibitory concentration (IC50) under setting [1] was determined as 8.3 nM.

The compound `CC(C)C[C@H]1NC(=O)[C@H](CCCN)NC(=O)[C@H](CCCNC(N)=O)NC(=O)[C@H](Cc2ccc(-c3ccccc3)cc2)NC(=O)[C@H](C(C)C)NC(=O)[C@H](Cc2c[nH]c3ccccc23)NC(=O)[C@H](CC(=O)O)NC(=O)[C@H](Cc2ccc(OCC(=O)O)cc2)NC(=O)[C@H](Cc2ccc(OCC(=O)O)cc2)NC(=O)CSC[C@@H](C(=O)N[C@@H](C)C(N)=O)NC(=O)[C@H]([C@@H](C)O)NC(=O)[C@H](C(C)C)NC(=O)[C@H](CC2CCCCC2)NC(=O)[C@H](Cc2c[nH]cn2)NC1=O` [Compound 1594] displayed a half-maximal inhibitory concentration (IC50) (Jurkat HPD1_PDL1 IC50, Jurkat-PD-1 cells) of 19.4 nM.
